# Experimental data reported in US4223041A, “Urea derivatives to treat anxiety and aggressivity” (Labaz, priority 1976, dated 1980).
# Like-named read-outs stand apart in the source and are kept apart here.
# Legend:
# [1] = cited from earlier work
# [2] = Four plates test (anxiolytic action); assay type: in vivo, mouse; settings: 0.5 h; 105 mg/kg oral, mouse, 30 min after administration; read-out: % of protection against anxiety
# Excerpt: This test, which is specific to the anxiolytics, was undertaken with the mouse, thirty minutes after the oral administration of the compound to be studied.
# It consists in placing mice in a box with fairly high walls, of which the bottom comprises four square plates. These plates, which all have the same dimensions, are separated from each other by a central axis and are alternately electrified by the positive and negative poles of a source of electric current. There is a space of a few millimeters between adjacent plates.
# The mouse placed in this apparatus explores it and thus passes over the different plates in succession. Note is taken of the number of times each animal passes over the plates during one minute. When the current is switched on, the mouse passing over the plates receives an electric shock (80 V), which provokes a gradual decrease in the exploratory movements, and finally brings the animals to a complete stop.
# Anxiolytic agents enable the animals to become more or less indifferent to the electric shock.
# The percentage of protection against anxiety given by compounds of the invention was calculated by comparing the number of times the control animals passed over the plates when electrified with the number of times the treated animals passed over the electrified plates.
# [3] = Action on the pentylenetetrazole-induced seizure (anticonvulsant activity); assay type: in vivo, mouse
# Protocol: The purpose of this test which is carried out on mice is to determine whether the compounds of the invention, when given preventively by oral route, are capable at certain doses of protecting some of the animals against the epileptic seizure produced by a predetermined dose of pentylenetetrazole which would be 100% fatal in the absence of the compound.
# The compound to be studied was administered fifteen minutes before an injection of 125 mg/kg of pentylenetetrazole and note was taken of the number of deaths occurring during the three hours following this injection. The results were expressed in percentage of protection of the animals against death at the dose studied.
# [4] = Action with respect to tremorine (cholinolytic properties); assay type: in vivo, mouse; settings: 170 mg/kg oral, mice, 30 min before 100 mg/kg i.p. tremorine
# Protocol: This test has been described by EVERETT (Nature, 1956, 177-238)
# When injected into mice, tremorine produces peripheral cholinergic effects i.e. weeping, hypersalivation, sedation, diarrhea as well as central cholinergic effects i.e. tremors, akinesia.
# Batches of 10 mice separated into individual cages, were given the compound to be studied, by oral route, 30 minutes before administration of an intraperitoneal dose of 100 mg/kg of tremorine.
# Note was then taken in each batch of the percentage of animals presenting the various symptoms of tremorine-induced poisoning since at such a dose of tremorine 100% of the control animals are poisoned.
# The results hereunder are expressed in percentage of mice protected against tremor at the dose of the compound of the invention which was administered: […]
# [5] = rota rod test (neurotoxicity); assay type: in vivo, mouse; settings: 370 mg/kg oral, mice, 30 min after administration
# Protocol: The test used was that known as the rota rod test described by BOISSIER (Therapie 1958 XIII pp. 1074-1118).
# This test aims at determining the ability of mice to coordinate their movements by seeing to what extent they can remain on a roller turning at a rate of 4 revolutions per minute for two minutes. The trial was carried out thirty minutes after administration by oral route of the compound to be studied and the percentage of failures was noted.
# The value of this test is twofold. Failure on the part of the animals gives a very early indication of the slightest damage to the meuromuscular functions which cannot be discerned by any other means. Secondly, this test serves as an element of comparison for drawing up index figures involving the results obtained with other tests.
# [6] = "Electrically-provoked combat" test (anxiolytic action); assay type: in vivo, mouse; settings: Mus musculus, 0.5 h; 71 mg/kg, mice, 30 min before test; read-out: % of decrease in number of combats
# Excerpt: Under certain conditions, a pair of mice reacts to an electric stimulus by a series of combats which are provoked by the anxiety felt by the animals as a result of the electric shock. This anxiety is expressed by a combat with the other animal which is rendered responsible. For this reason, the test described hereunder can be considered as a means of evaluating the anxiolytic action of a compound. Two mice which have been previously on a diet consisting only of water are placed together in a cage. They are then submitted to a series of electric impulses of an intensity varying between 40 and 80 volts according to the sensitivity of the animals. The test is first carried out with untreated animals as controls and then with the same animals treated 30 minutes before the test with a dose of the compound to be studied.
# Note is taken on the number of combats engaged. The results are expressed in percentage of decrease in the number of combats engaged by the treated animals in comparison with the number of combats registered before treatment.
# [7] = Anxiolytic and antiaggressive properties and separation from sedation (general statements); settings: in vivo
# [8] = Arch. Int. Pharmacodyn 219, 104-115 (1976)
compound,measurement,setting,value
CCCCNC(N)=O [n-butyl-urea],pharmacological properties (in words),"[1]; Arch. Int. Pharmacodyn 208, 204-212 (1974)",properties similar to those cited hereabove with respect to tert-butyl-urea
"C#CC(CC)(CC)NC(N)=O [Compound C, 1-(1,1-Diethyl-2-propynyl)-urea]",inhibition in vivo at 105 mg/kg,[2],50%
same,responders at 70 mg/kg,"[3]; Mus musculus, po, 3 h, read-out: % of protection against death",50%
same,anticonvulsant activity (in words),"[3]; pentylenetetrazole-induced seizure, mice, oral",considerable
same,% of protection against tremor,[4],0%
same,% of failures in rota rod test,[5],50%
same,inhibition in vivo at 71 mg/kg,[6],50%
"CCCC(CCC)(CCC)NC(=O)NC(C)=O [1-(1,1-di-n-propyl-n-butyl)-3-acetyl-urea]",anxiolytic and antiaggressive activity (in words),[7],inactive or practically devoid of any anxiolytic or antiaggressive activity
CC(C)(C)NC(N)=O [tert-butyl-urea],pharmacological properties (in words),[1]; [8],"anticonvulsant, hypnotic and sedative properties"
same,potentiation of hypnotic effects of the barbiturates,[1]; [8],potentiator of the hypnotic effects of the barbiturates
"CCCC(CCC)(CCC)NC(=O)NC(=O)c1ccccc1 [1-(1,1-di-n-propyl-n-butyl)-3-benzoyl-urea]",anxiolytic and antiaggressive activity (in words),[7],inactive or practically devoid of any anxiolytic or antiaggressive activity
